Values of other authors, collected in US8071785B2, “Synthesis and evaluation of 18F-labelled-alkyl-1-[(1R)-1-phenylethyl]-1H-imidazole-5-carboxylate as a tracer for the quantification of β-11-hydroxylase enzyme in the adrenal glands” (priority 2006, dated 2011).

Tests used:
[1] = test system: lesions of adrenocortical origin; details: clinical findings
[2] = test system: steroid 110-hydroxylation
[3] = human adrenocortical tissue slices

For `CC(c1ccccc1)n1cncc1C(=O)O[11CH3]` (centres unmarked) [[O-methyl-^11C]metomidate], which “uptake in lesions of adrenocortical origin, including adenomas” value [1] is on record?
The value was “high uptake”.

And the “uptake in lesions of non-adrenocortical origin” value [1]?
The value was “very low uptake”.

Which results are given for `CCOC(=O)c1cncn1[C@H](C)c1ccccc1` [etomidate]?
conversion of 11-deoxycorticosterone (DOC) to corticosterone and aldosterone [2, 3]: block the conversion; conversion of 11-deoxycortisol to cortisol [2, 3]: block the conversion

With `COC(=O)c1cncn1[C@H](C)c1ccccc1` [metomidate, Methyl 1-[(1R)-1-phenylethyl]-1H-imidazole-5-carboxylate] as the compound, how does the “inhibition of steroid 110-hydroxylation” value ([2]; relative to etomidate) read?
Its value is “equally potent inhibitor”.
